Test results published in patent US7960556B2, “Thiadiazole derivatives for the treatment of neuro-degenerative diseases” (NV reMYND, priority 2006, dated 2011).

Tested on: α-synuclein cytotoxicity in M17-SYNwt cells
Test: α-synuclein cytotoxicity assay: LDH leakage from paraquat-treated M17-SYNwt neuroblastoma cells;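 also: paraquat at 32 mM co-added with compound, 40 h exposure, LDH activity released into the culture medium measured, references are DMSO-only cells and paraquat plus DMSO cells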
Conditions: Homo sapiens, Neuroblastoma cell; for Emax: read-out: % Inhib.
Text: An α-synuclein expression plasmid was constructed by sub-cloning the NcoI/XhoI fragment from 212T-SYN(WT) (Griffioen et al., Biochem Biophys Acta (2006) 1762(3):312-318) containing the cDNA of human wild type α-synuclein correspondingly into a standard mammalian expression vector pcDNA3.1 (Invitrogen) resulting into the plasmid pcDNA3.1-SYNwt. Plasmids pcDNA3.1 and pcDNA3.1-SYNwt were transfected to human neuroblastoma cells (ATCC No. CRL-2267) and independent clonal lines with the plasmids stably integrated into the genome were selected. […] Over-expression of α-synuclein in M17-SYNwt cell lines was confirmed by Western analysis.
Due to the high levels of α-synuclein M17-SYNwt cells are exquisitely sensitivity to paraquat, a well-known risk factor of synuclein-dependent neuronal degeneration. In degenerated or dead cells lactate dehydrogenase (LDH) is leaked out of the cells into the extracellular environment due to a loss of plasma-membrane integrity. This principle was used to determine cytotoxicity by quantifying the level of leaked LDH into the growth medium.
The detailed method for determining α-synuclein cytotoxicity was as follows: From appropriate precultures of M17 and M17-SYN cells were seeded at 50,000 cells/cm^2 in Optimem Reduced Serum without phenol red (available from InVitrogen, Cat. 31985-047) supplemented with 5% fetal calf serum, 1 mM sodium pyruvate, 1× non-essential amino acids, 500 μg/ml G418 0,5× antibiotic/antimycotic. After 3 hours of incubation at 37° C./5% CO2 paraquat was added to the cells (final concentration of 32 mM), together with the test compound and the cells were further incubated for 40 hours. Subsequently, LDH activity was determined using Promega Cytotox 96 Non-Radioactive cytotoxicity assay, (Cat. G1780) according the instructions of the supplier.
In these experiments, the control group consisted of M17-SYNwt cells treated with DMSO, the untreated paraquat group consisted of M17-SYNwt cells treated with paraquat and DMSO, and the treated paraquat group consisted of M17-SYNwt cells treated with paraquat and the test compound dissolved in DMSO.

| SMILES | EC50 | Emax |
| --- | --- | --- |
| CCc1ccc(C(=O)N2CCN(c3nc(Cc4ccc(C)cc4)ns3)CC2)cc1 [compound 131, 1-(4-ethylbenzoyl)-4-[3-(4-methylbenzyl)-1,2,4-thiadiazol-5-yl]piperazine] | 250 nM | 91% |
| COc1ccc(S(=O)(=O)N2CCN(c3nc(Cc4ccc(C)cc4)ns3)CC2C)cc1 (stereo not drawn) [compound 60, 1-[4-methoxyphenylsulfonyl]-4-[3-(4-methylbenzyl)-1,2,4-thiadiazol-5-yl]-2-methylpiperazine] | 0.033 nM | 93% |
| O=C(CCc1ccccc1)N1CCN(c2nc(Cc3ccc(F)cc3)ns2)CC1 [compound 90, 1-(3-phenylpropanoyl)-4-[3-(4-fluorobenzyl)-1,2,4-thiadiazol-5-yl]piperazine] | 1410 nM | 73% |
| CC(C)(C)c1ccc(C(=O)N2CCN(c3nc(Cc4ccc(F)cc4)ns3)CC2)cc1 [compound 180, 1-(4-tert-butylbenzoyl)-4-[3-(4-fluorobenzyl)-1,2,4-thiadiazol-5-yl]piperazine] |  | 62% |
| O=C(c1cc(Cl)cc(Cl)c1)N1CCN(c2nc(Cc3ccc(F)cc3)ns2)CC1 [compound 137, 1-(3,5-dichlorobenzoyl)-4-[3-(4-fluorobenzyl)-1,2,4-thiadiazol-5-yl]piperazine] | 350 nM | 68% |
| COc1cccc(Cc2nsc(N3CCN(C(=O)c4ccc(Cl)cc4)C(C)C3)n2)c1 (stereo not drawn) [compound 174, 1-(4-chlorobenzoyl)-4-[3-(3-methoxybenzyl)-1,2,4-thiadiazol-5-yl]-2-methylpiperazine] |  | 83% |
| CC1CN(c2nc(Cc3ccc(F)cc3)ns2)CCN1C(=O)Nc1ccccc1C(F)(F)F (stereo not drawn) [compound 18, N-(2-trifluoromethylphenyl)-4-[3-(4-fluorobenzyl)-1,2,4-thiadiazol-5-yl]-2-methylpiperazine-1-carboxamide] |  | 41% |
| COc1cccc(Cc2nsc(N3CCN(C(=O)c4ccc(C(F)(F)F)cc4)C(C)C3)n2)c1 (stereo not drawn) [compound 168, 1-(4-trifluoromethylbenzoyl)-4-[3-(3-methoxybenzyl)-1,2,4-thiadiazol-5-yl]-2-methylpiperazine] |  | 91% |
| Cc1ccc(C(=O)N2CCN(c3nc(Cc4ccc(F)cc4)ns3)CC2C)cc1[N+](=O)[O-] (stereo not drawn) [compound 172, 1-(3-nitro-4-methylbenzoyl)-4-[3-(4-fluorobenzyl)-1,2,4-thiadiazol-5-yl]-2-methylpiperazine] |  | 86% |
| O=C(Nc1ccccc1F)N1CCN(c2nc(Cc3ccc(F)cc3)ns2)CC1 [compound 16, N-(2-fluorophenyl)-4-[3-(4-fluorobenzyl)-1,2,4-thiadiazol-5-yl]piperazine-1-carboxamide] | 5680 nM | 72% |
| CC1CN(c2nc(Cc3ccc(F)cc3)ns2)CCN1C(=O)c1ccc(Br)cc1 (stereo not drawn) [compound 135, 1-(4-bromobenzoyl)-4-[3-(4-fluorobenzyl)-1,2,4-thiadiazol-5-yl]-2-methylpiperazine] | 310 nM | 73% |
| CCCCCc1ccc(C(=O)N2CCN(c3nc(Cc4ccc(C)cc4)ns3)CC2C)cc1 (stereo not drawn) [compound 134, 1-(4-pentylbenzoyl)-4-[3-(4-methylbenzyl)-1,2,4-thiadiazol-5-yl]-2-methylpiperazine] | 300 nM | 75% |
| O=C(Nc1ccccc1)N1CCN(c2nc(Cc3ccc(F)cc3)ns2)CC1 [compound 13, N-phenyl-4-[3-(4-fluorobenzyl)-1,2,4-thiadiazol-5-yl]piperazine-1-carboxamide] | 1230 nM | 71% |
| CC1CN(c2nc(Cc3ccc(F)cc3)ns2)CCN1S(=O)(=O)c1ccc([N+](=O)[O-])cc1 (stereo not drawn) [compound 73, 1-[4-nitrophenylsulfonyl]-4-[3-(4-fluorobenzyl)-1,2,4-thiadiazol-5-yl]-2-methylpiperazine] |  | 33% |
| CC1CN(c2nc(Cc3ccc(F)cc3)ns2)CCN1C(=O)c1cccc(Cl)c1 (stereo not drawn) [compound 122, 1-(3-chlorobenzoyl)-4-[3-(4-fluorobenzyl)-1,2,4-thiadiazol-5-yl]-2-methylpiperazine] | 140 nM | 92% |
| Fc1ccc(Cc2nsc(N3CCN(Cc4ccc5c(c4)OCO5)CC3)n2)cc1 [compound 114, 1-(1,3-benzodioxol-5-ylmethyl)-4-[3-(4-fluorobenzyl)-1,2,4-thiadiazol-5-yl]piperazine] |  | 86% |
| CCc1ccc(S(=O)(=O)N2CCN(c3nc(Cc4ccc(F)cc4)ns3)CC2)cc1 [compound 197, 1-[4-ethylphenylsulfonyl]-4-[3-(4-fluoro-benzyl)-1,2,4-thiadiazol-5-yl]piperazine] | 535 nM | 84% |
| CC1CN(c2nc(Cc3ccc(F)cc3)ns2)CCN1S(=O)(=O)c1ccc(C(C)(C)C)cc1 (stereo not drawn) [compound 54, 1-[4-tert-butylphenylsulfonyl]-4-[3-(4-fluorobenzyl)-1,2,4-thiadiazol-5-yl]-2-methylpiperazine] |  | 60% |
| O=C(Nc1ccccc1C(F)(F)F)N1CCN(c2nc(Cc3ccc(F)cc3)ns2)CC1 [compound 17, N-(2-trifluoromethylphenyl)-4-[3-(4-fluorobenzyl)-1,2,4-thiadiazol-5-yl]piperazine-1-carboxamide] |  | 46% |
| Cc1ccc(Cc2nsc(N3CCN(S(=O)(=O)c4ccc(C)cc4)C(C)C3)n2)cc1 (stereo not drawn) [compound 50, 1-[4-methylphenylsulfonyl]-4-[3-(4-methylbenzyl)-1,2,4-thiadiazol-5-yl]-2-methylpiperazine] |  | 105% |
| Cc1ccccc1NC(=O)N1CCN(c2nc(Cc3ccc(F)cc3)ns2)CC1C (stereo not drawn) [compound 10, N-(2-methylphenyl)-4-[3-(4-fluorobenzyl)-1,2,4-thiadiazol-5-yl]-2-methylpiperazine-1-carboxamide] | 600 nM | 72% |
| CCCCCCc1ccc(C(=O)N2CCN(c3nc(Cc4ccc(C)cc4)ns3)CC2)cc1 [compound 176, 1-(4-hexylbenzoyl)-4-[3-(4-methylbenzyl)-1,2,4-thiadiazol-5-yl]piperazine] |  | 77% |
| Cc1ccc(Cc2nsc(N3CCN(S(=O)(=O)c4cc(Cl)ccc4Cl)C(C)C3)n2)cc1 (stereo not drawn) [compound 36, 1-[2,5-dichlorophenylsulfonyl]-4-[3-(4-methylbenzyl)-1,2,4-thiadiazol-5-yl]-2-methylpiperazine] | 100 nM | 52% |
| COc1cccc(Cc2nsc(N3CCN(C(=O)c4ccccc4F)C(C)C3)n2)c1 (stereo not drawn) [compound 115, 1-(2-fluorobenzoyl)-4-[3-(3-methoxybenzyl)-1,2,4-thiadiazol-5-yl]-2-methylpiperazine] | 36.1 nM | 75% |
| Cc1ccc(Cc2nsc(N3CCN(S(=O)(=O)c4ccc(Cl)cc4)C(C)C3)n2)cc1 (stereo not drawn) [compound 34, 1-[4-chlorophenylsulfonyl]-4-[3-(4-methylbenzyl)-1,2,4-thiadiazol-5-yl]-2-methylpiperazine] | 65.7 nM | 66% |
| CCOc1ccccc1N1CCN(c2nc(Cc3ccc(F)cc3)ns2)CC1 [compound 186, 1-(2-ethoxyphenyl)-4-[3-(4-fluorobenzyl)-1,2,4-thiadiazol-5-yl]piperazine] | 2050 nM | 94% |
| Cc1ccc(Cc2nsc(N3CCN(S(=O)(=O)c4cccc5cccnc45)CC3)n2)cc1 [compound 70, 1-[quinoline-8-sulfonyl]-4-[3-(4-methylbenzyl)-1,2,4-thiadiazol-5-yl]piperazine] |  | 44% |
